In PubChem BioAssay (NCI):
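Cells were grown in 96-well plates and exposed to each compound for 48 hours at five concentrations; endpoints were interpolated linearly between bracketing concentrations, or set to the highest concentration if not reached. Definition used: TGI = concentration required for complete inhibition of growth.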

Legend:
Test in all cases: DTP human tumour cell line panel, 48 h
IGROV1 ovarian = system: IGROV1 ovarian
NCI-H23 lung = system: NCI-H23 lung
SF-268 CNS = system: SF-268 CNS
SW-620 colon = system: SW-620 colon
SF-295 CNS = system: SF-295 CNS
CCRF-CEM leukemia = system: CCRF-CEM leukemia
TK-10 renal = system: TK-10 renal
CAKI-1 renal = system: CAKI-1 renal
UACC-62 melanoma = system: UACC-62 melanoma
SN12C renal = system: SN12C renal
U251 CNS = system: U251 CNS
MDA-MB-231 breast = system: MDA-MB-231 breast
T-47D breast = system: T-47D breast
SK-MEL-5 melanoma = system: SK-MEL-5 melanoma
SF-539 CNS = system: SF-539 CNS
MCF7 breast = system: MCF7 breast
OVCAR-3 ovarian = system: OVCAR-3 ovarian
EKVX NSCLC = system: EKVX NSCLC
OVCAR-5 ovarian = system: OVCAR-5 ovarian
786-0 renal = system: 786-0 renal
HL-60(TB) leukemia = system: HL-60(TB) leukemia
SNB-19 CNS = system: SNB-19 CNS
OVCAR-4 ovarian = system: OVCAR-4 ovarian
NCI/ADR-RES ovarian = system: NCI/ADR-RES ovarian
HCT-116 colon = system: HCT-116 colon
HCC-2998 colon = system: HCC-2998 colon
MDA-MB-435 = system: MDA-MB-435
KM12 colon = system: KM12 colon
COLO 205 colon = system: COLO 205 colon
NCI-H522 lung = system: NCI-H522 lung
A549 NSCLC = system: A549 NSCLC
SK-MEL-28 melanoma = system: SK-MEL-28 melanoma
HOP-62 NSCLC = system: HOP-62 NSCLC
K-562 leukemia = system: K-562 leukemia
MOLT-4 leukemia = system: MOLT-4 leukemia
ACHN renal = system: ACHN renal
A498 renal = system: A498 renal
BT-549 breast = system: BT-549 breast
UO-31 renal = system: UO-31 renal
PC-3 prostate = system: PC-3 prostate
UACC-257 melanoma = system: UACC-257 melanoma
RXF 393 renal = system: RXF 393 renal
NCI-H460 lung = system: NCI-H460 lung
HT29 colon = system: HT29 colon
OVCAR-8 ovarian = system: OVCAR-8 ovarian
LOX IMVI melanoma = system: LOX IMVI melanoma
MDA-N = system: MDA-N
SK-OV-3 ovarian = system: SK-OV-3 ovarian
NCI-H226 lung = system: NCI-H226 lung
HCT-15 colon = system: HCT-15 colon
M14 melanoma = system: M14 melanoma
SK-MEL-2 melanoma = system: SK-MEL-2 melanoma
HS 578T breast = system: HS 578T breast
DU-145 prostate = system: DU-145 prostate
RPMI-8226 leukemia = system: RPMI-8226 leukemia
MALME-3M melanoma = system: MALME-3M melanoma
SNB-75 CNS = system: SNB-75 CNS

`CCOC(=O)N1c2ccccc2S(=O)(=O)c2ccccc21` was tested, and the TGI (IGROV1 ovarian) was greater than 100 µM, the TGI (NCI-H23 lung) was greater than 100 µM and the TGI (SF-268 CNS) was greater than 100 µM. It also gave a TGI (SW-620 colon) greater than 100 µM, a TGI (SF-295 CNS) greater than 100 µM and a TGI (CCRF-CEM leukemia) greater than 100 µM. It also gave a TGI (TK-10 renal) greater than 100 µM, a TGI (CAKI-1 renal) greater than 100 µM and a TGI (UACC-62 melanoma) greater than 100 µM. For the same compound, the TGI (SN12C renal) was greater than 100 µM, the TGI (U251 CNS) was greater than 100 µM and the TGI (MDA-MB-231 breast) was greater than 100 µM. It also gave a TGI (T-47D breast) greater than 100 µM, a TGI (SK-MEL-5 melanoma) greater than 100 µM and a TGI (SF-539 CNS) greater than 100 µM. For the same compound, the TGI (MCF7 breast) was greater than 100 µM, the TGI (OVCAR-3 ovarian) was greater than 100 µM and the TGI (EKVX NSCLC) was greater than 100 µM. The TGI (OVCAR-5 ovarian) was greater than 100 µM, the TGI (786-0 renal) was greater than 100 µM and the TGI (HL-60(TB) leukemia) was greater than 100 µM. It also gave a TGI (SNB-19 CNS) greater than 100 µM, a TGI (OVCAR-4 ovarian) greater than 100 µM and a TGI (NCI/ADR-RES ovarian) greater than 100 µM. For the same compound, the TGI (HCT-116 colon) was greater than 100 µM, the TGI (HCC-2998 colon) was greater than 100 µM and the TGI (MDA-MB-435) was greater than 100 µM. It also gave a TGI (KM12 colon) greater than 100 µM, a TGI (COLO 205 colon) greater than 100 µM and a TGI (NCI-H522 lung) greater than 100 µM. The TGI (A549 NSCLC) was greater than 100 µM, the TGI (SK-MEL-28 melanoma) was greater than 100 µM and the TGI (HOP-62 NSCLC) was greater than 100 µM. The TGI (K-562 leukemia) was greater than 100 µM, the TGI (MOLT-4 leukemia) was greater than 100 µM and the TGI (ACHN renal) was greater than 100 µM. The TGI (A498 renal) was greater than 100 µM, the TGI (BT-549 breast) was greater than 100 µM and the TGI (UO-31 renal) was greater than 100 µM. For the same compound, the TGI (PC-3 prostate) was greater than 100 µM, the TGI (UACC-257 melanoma) was greater than 100 µM and the TGI (RXF 393 renal) was greater than 100 µM. For the same compound, the TGI (NCI-H460 lung) was greater than 100 µM, the TGI (HT29 colon) was greater than 100 µM and the TGI (OVCAR-8 ovarian) was greater than 100 µM. For the same compound, the TGI (LOX IMVI melanoma) was greater than 100 µM, the TGI (MDA-N) was greater than 100 µM and the TGI (SK-OV-3 ovarian) was greater than 100 µM. For the same compound, the TGI (NCI-H226 lung) was greater than 100 µM, the TGI (HCT-15 colon) was greater than 100 µM and the TGI (M14 melanoma) was greater than 100 µM. It also gave a TGI (SK-MEL-2 melanoma) greater than 100 µM, a TGI (HS 578T breast) greater than 100 µM and a TGI (DU-145 prostate) greater than 100 µM.
`CCCCSC1=N/C(=C\c2ccco2)C(=O)N1` showed a TGI (IGROV1 ovarian) greater than 100 µM, a TGI (RPMI-8226 leukemia) greater than 100 µM and a TGI (NCI-H23 lung) greater than 100 µM. For the same compound, the TGI (SF-268 CNS) was greater than 100 µM, the TGI (SW-620 colon) was greater than 100 µM and the TGI (SF-295 CNS) was greater than 100 µM. The TGI (CCRF-CEM leukemia) was greater than 100 µM, the TGI (TK-10 renal) was greater than 100 µM and the TGI (CAKI-1 renal) was greater than 100 µM. The TGI (UACC-62 melanoma) was greater than 100 µM, the TGI (SN12C renal) was greater than 100 µM and the TGI (MALME-3M melanoma) was greater than 100 µM. It also gave a TGI (U251 CNS) greater than 100 µM, a TGI (MDA-MB-231 breast) greater than 100 µM and a TGI (T-47D breast) greater than 100 µM. For the same compound, the TGI (SK-MEL-5 melanoma) was greater than 100 µM, the TGI (MCF7 breast) was greater than 100 µM and the TGI (OVCAR-3 ovarian) was greater than 100 µM. The TGI (EKVX NSCLC) was greater than 100 µM, the TGI (OVCAR-5 ovarian) was greater than 100 µM and the TGI (786-0 renal) was greater than 100 µM. For the same compound, the TGI (HL-60(TB) leukemia) was greater than 100 µM, the TGI (SNB-19 CNS) was greater than 100 µM and the TGI (OVCAR-4 ovarian) was greater than 100 µM. It also gave a TGI (NCI/ADR-RES ovarian) greater than 100 µM, a TGI (HCT-116 colon) greater than 100 µM and a TGI (HCC-2998 colon) greater than 100 µM. It also gave a TGI (MDA-MB-435) greater than 100 µM, a TGI (KM12 colon) greater than 100 µM and a TGI (COLO 205 colon) greater than 100 µM. For the same compound, the TGI (NCI-H522 lung) was greater than 100 µM, the TGI (A549 NSCLC) was greater than 100 µM and the TGI (SK-MEL-28 melanoma) was greater than 100 µM. The TGI (HOP-62 NSCLC) was greater than 100 µM, the TGI (MOLT-4 leukemia) was greater than 100 µM and the TGI (ACHN renal) was greater than 100 µM. The TGI (A498 renal) was greater than 100 µM, the TGI (BT-549 breast) was greater than 100 µM and the TGI (UO-31 renal) was greater than 100 µM. For the same compound, the TGI (SNB-75 CNS) was greater than 100 µM, the TGI (PC-3 prostate) was greater than 100 µM and the TGI (UACC-257 melanoma) was greater than 100 µM. It also gave a TGI (RXF 393 renal) of 64.7 µM, a TGI (NCI-H460 lung) greater than 100 µM and a TGI (HT29 colon) greater than 100 µM. For the same compound, the TGI (OVCAR-8 ovarian) was greater than 100 µM, the TGI (MDA-N) was greater than 100 µM and the TGI (SK-OV-3 ovarian) was greater than 100 µM. For the same compound, the TGI (NCI-H226 lung) was greater than 100 µM, the TGI (HCT-15 colon) was greater than 100 µM and the TGI (M14 melanoma) was greater than 100 µM. It also gave a TGI (SK-MEL-2 melanoma) greater than 100 µM, a TGI (HS 578T breast) of 88.3 µM and a TGI (DU-145 prostate) greater than 100 µM.
